From patent US20080214533A1, “Cyclic Iminocarbamates And Their Use” (BAYER HEALTHCARE AG, priority 2004, published 2008)

biological target: human factor Xa (FXa) (Homo sapiens, UniProt P00742); experiment: Determination of the factor Xa inhibition (chromogenic substrate); type: biochemical; conditions: chromogenic substrate Pefachrome FXa, 25° C., extinction at 405 nm
Experimental: The enzymatic activity of human factor Xa (FXa) is measured using the conversion of a chromogenic substrate specific for FXa. Factor Xa cleaves p-nitroaniline from the chromogenic substrate. The determinations are carried out in microtitre plates as follows:
The test substances, in various concentrations, are dissolved in DMSO and incubated for 10 minutes at 25° C. with human FXa ([…] dissolved in 50 mmol/l of Tris buffer [C,C,C-tris(hydroxymethyl)aminomethane], 150 mmol/l of NaCl, 0.1% BSA [bovine serum albumin], pH=8.3). Pure DMSO is used as control. The chromogenic substrate (150 μmol/l Pefachrome® FXa from Pentapharm) is then added. After an incubation time of 20 minutes at 25° C., the extinction at 405 nm is determined.

Chain of human factor Xa (FXa) (P00742 235-488 limits assumed): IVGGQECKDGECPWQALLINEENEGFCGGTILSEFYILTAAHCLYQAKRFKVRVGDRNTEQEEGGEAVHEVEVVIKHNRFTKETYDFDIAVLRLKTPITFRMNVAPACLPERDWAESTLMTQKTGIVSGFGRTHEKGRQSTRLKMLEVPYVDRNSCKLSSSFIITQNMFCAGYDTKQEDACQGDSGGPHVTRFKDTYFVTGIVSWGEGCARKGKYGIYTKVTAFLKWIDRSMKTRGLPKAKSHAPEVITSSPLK
Chain of human factor Xa (FXa) (P00742 41-179 partner limits assumed): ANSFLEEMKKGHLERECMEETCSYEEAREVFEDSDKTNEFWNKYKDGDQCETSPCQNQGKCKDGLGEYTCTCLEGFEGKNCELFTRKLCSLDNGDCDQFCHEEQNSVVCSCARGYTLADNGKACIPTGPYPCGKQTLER

IC50 [nM]	SMILES
2.6	N=C1OCCCN1c1ccc(NC(=O)c2nccnc2C(=O)Nc2ccc(Cl)cn2)cc1 [Example 5, N-(5-Chloropyridin-2-yl)-N′-[4-(2-imino-1,3-oxazinan-3-yl)phenyl]pyrazine-2,3-dicarboxamide methanesulphonate]
0.3	Cc1nc(C(=O)Nc2ccc(Cl)cn2)c(C(=O)Nc2ccc(N3CCOC3=N)cc2)s1 [Example 12, N^4-(5-Chloropyridin-2-yl)-N^5-[4-(2-imino-1,3-oxazolidin-3-yl)phenyl]-2-methyl-1,3-thiazole-4,5-dicarboxamide methanesulphonate]
4.4	Cc1nc(C(=O)Nc2ccc(N3CCOC3=N)cc2)c(C(=O)Nc2ccc(Cl)cn2)s1 [Example 13, N^5-(5-Chloropyridin-2-yl)-N^4-[4-(2-imino-1,3-oxazolidin-3-yl)phenyl]-2-methyl-1,3-thiazole-4,5-dicarboxamide methanesulphonate]
0.64	N=C1OCCN1c1ccc(NC(=O)c2nccnc2C(=O)Nc2ccc(Cl)cn2)cc1 [Example 1, N-(5-Chloropyridin-2-yl)-N′-[4-(2-imino-1,3-oxazolidin-3-yl)phenyl]pyrazine-2,3-dicarboxamide methanesulphonate]
